pEC50, pIC50: −log10 of the molar value. Values after ≈ are worked out from the molar mass of the structure shown.
Assays:
MCF7 = assay: Anticancer activity against human MCF7 cells assessed as cell growth inhibition measured after 48 hrs by sulforhodamine B staining based analysis; format: functional
SF-268 = assay: Anticancer activity against human SF-268 cells assessed as cell growth inhibition measured after 48 hrs by sulforhodamine B staining based analysis; format: functional
NCI-H460 = assay: Anticancer activity against human NCI-H460 cells assessed as cell growth inhibition measured after 48 hrs by sulforhodamine B staining based analysis; format: functional
[1] = Cytotoxicity against human WI-38 cells assessed as cell growth inhibition measured after 48 hrs by sulforhodamine B staining based analysis; format: toxicity
Sprivivirus cyprinus = assay: Antiviral activity against Carp sprivivirus infected Fathead minnow EPC cells assessed as assessed as suppression of virus-induced cytopathic effect incubated for 48 hrs by CCK-8 assay; format: functional, organism-based
Rattus norvegicus [2] = assay: Antiinflammatory activity in carrageenan induced rat paw oedema model assessed as inhibition of paw oedema, ip pretreated with compound for 30 mins followed by carrageenan injection measured after 3 hrs relative to control; format: functional; design: scale not given: the % may be the effect or the level left; settings: time 3.5 hrs
Bacillus subtilis = assay: Antibacterial activity against Bacillus subtilis assessed as zone of inhibition at 1000 ug/ml measured after 24 hrs by cup plate method; format: functional; settings: read-out: DIZ
Pseudomonas aeruginosa [3] = assay: Antibacterial activity against Pseudomonas aeruginosa assessed as zone of inhibition at 1000 ug/ml measured after 24 hrs by cup plate method; format: functional; settings: read-out: DIZ
Aspergillus terreus = assay: Antifungal activity against Aspergillus terreus assessed as zone of inhibition at 1000 ug/ml measured after 24 hrs by cup plate method; format: functional; settings: read-out: DIZ
Aspergillus flavus [4] = assay: Antifungal activity against Aspergillus flavus assessed as zone of inhibition at 1000 ug/ml measured after 24 hrs by cup plate method; format: functional; settings: read-out: DIZ
Staphylococcus aureus [5] = assay: Antibacterial activity against Staphylococcus aureus assessed as zone of inhibition at 1000 ug/ml measured after 24 hrs by cup plate method; format: functional; settings: read-out: DIZ
Rattus norvegicus [6] = assay: Antiinflammatory activity in formalin induced fasted albino rat paw oedema model assessed as inhibition of paw oedema at 100 mg/kg, po measured after 4 hrs by plethysmograph analysis relative to control; format: functional; design: scale not given: the % may be the effect or the level left
Escherichia coli = assay: Antibacterial activity against Escherichia coli assessed as zone of inhibition at 1000 ug/ml measured after 24 hrs by cup plate method; format: functional; settings: read-out: DIZ
Aspergillus niger = assay: Antifungal activity against Aspergillus niger assessed as zone of inhibition at 1000 ug/ml measured after 24 hrs by cup plate method; format: functional; settings: read-out: DIZ
Shigella dysenteriae = assay: Antibacterial activity against Shigella dysenteriae ATCC 49345 assessed as bacterial growth inhibition at 50 ug/ml incubated for 24 hrs relative to control; format: functional; design: scale not given: the % may be the effect or the level left; settings: dose 50 µg/ml
Salmonella typhi = assay: Antibacterial activity against Salmonella typhi ATCC 11778 assessed as bacterial growth inhibition at 50 ug/ml incubated for 24 hrs relative to control; format: functional, Salmonella enterica subsp. enterica serovar Typhi; design: scale not given: the % may be the effect or the level left; settings: dose 50 µg/ml
Rattus norvegicus [7] = assay: Antiinflammatory activity in formalin induced Wistar rat paw oedema model assessed as inhibition of paw oedema administered up to 6 hrs by plethysmograph analysis; format: functional, organism-based; design: scale not given: the % may be the effect or the level left
Hepatitis C virus = assay: Antiviral activity against HCV GT-1b infected in human Huh-5-2 cells carrying HCV subgenomic replicons assessed as inhibition of viral replication by quantitative RT-PCR assay; format: functional, organism-based, Hepacivirus hominis; settings: subtype 1b
[8] = Anticancer activity against human KATO III stomach cancer cell line assessed as cell growth inhibition measured after 3 days by CCK-8 assay; format: functional; settings: 72 h, time 3 day
SK-OV-3 = assay: Anticancer activity against human SK-OV-3 cells assessed as cell growth inhibition measured after 3 days by CCK-8 assay; format: functional; settings: SK-OV-3, 72 h, time 3 day
K562 = assay: Anticancer activity against human K562 cells assessed as cell growth inhibition measured after 3 days by CCK-8 assay; format: functional; settings: K562, 72 h, time 3 day
PANC-1 = assay: Anticancer activity against human PANC-1 cells assessed as cell growth inhibition measured after 3 days by CCK-8 assay; format: functional; settings: PANC-1, 72 h, time 3 day
HeLa = assay: Anticancer activity against human HeLa cells assessed as cell growth inhibition by SRB method; format: functional
Pseudomonas aeruginosa [9] = assay: Antibacterial activity against Pseudomonas aeruginosa assessed as zone of inhibition measured after 24 hrs by agar well diffusion method; format: functional
Pseudomonas aeruginosa [10] = assay: Antibacterial activity against Pseudomonas aeruginosa assessed as cell growth inhibition measured after 24 hrs by serial broth-dilution method; format: functional
Aspergillus flavus [11] = assay: […] activity against Aspergillus flavus assessed as zone of inhibition measured after 24 hrs by agar well diffusion method; format: functional
Aspergillus flavus [12] = assay: […] activity against Aspergillus flavus assessed as cell growth inhibition measured after 24 hrs by serial broth-dilution method; format: functional
Staphylococcus aureus [13] = assay: Antibacterial activity against beta lactamase positive Staphylococcus aureus ATCC 25923 assessed as zone of inhibition at 0.5 mg/ml incubated for 18 hrs by Kirby-Bauer disk diffusion method; format: functional; settings: read-out: DIZ
AGS = assay: Anticancer activity against human AGS cells assessed as cell growth inhibition measured after 3 days by CCK-8 assay; format: functional; settings: 72 h, time 3 day
SNU1 = assay: Anticancer activity against human SNU1 cells assessed as cell growth inhibition measured after 3 days by CCK-8 assay; format: functional; settings: SNU1, 72 h, time 3 day
Carbonic anhydrase 1 = Carbonic anhydrase 1 (Homo sapiens, UniProt P00915); assay: Inhibition of human carbonic anhydrase-1 by stopped flow CO2 hydrase assay
Carbonic anhydrase 1, sequence (P00915 whole entry): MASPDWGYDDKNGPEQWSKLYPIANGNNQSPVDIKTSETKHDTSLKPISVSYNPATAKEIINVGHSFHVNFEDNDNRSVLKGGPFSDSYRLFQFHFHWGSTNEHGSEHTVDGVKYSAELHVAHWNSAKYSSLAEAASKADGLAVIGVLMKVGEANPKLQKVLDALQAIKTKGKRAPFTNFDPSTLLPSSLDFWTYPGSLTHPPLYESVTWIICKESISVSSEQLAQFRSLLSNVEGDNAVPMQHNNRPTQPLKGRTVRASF

Carbonic anhydrase 2 = Carbonic anhydrase 2 (Homo sapiens, UniProt P00918); assay: Inhibition of human carbonic anhydrase-2 by stopped flow CO2 hydrase assay
[14] = Anticancer activity against mouse L1210/0 cells assessed as cell growth inhibition measured after 3 days by CCK-8 assay; format: functional, cell-based; settings: L1210/0, 72 h
CCRF-CEM = assay: Anticancer activity against human CEM/0 cells assessed as cell growth inhibition measured after 3 days by CCK-8 assay; format: functional, cell-based; settings: 72 h
MOLT-4 = assay: Anticancer activity against human Molt4/C8 cells assessed as cell growth inhibition measured after 3 days by CCK-8 assay; format: functional, cell-based; settings: MOLT-4, 72 h

O=c1oc2ccccc2c2cc(O)n3c4ccccc4nc3c12
GI50 (MCF7): 44 µM | GI50 (SF-268): 20.6 µM | GI50 (NCI-H460): 29 µM | GI50 at 48 h [1]: 28.2 µM

O=c1ccc2cc(OCCCn3cnc4ccccc43)ccc2o1
IC50 (Sprivivirus cyprinus): 2.2 µg/mL (≈ 6.87 µM)

O=c1cc(Cc2nc3ccccc3[nH]2)c2ccccc2o1
Activity (Rattus norvegicus [2]): 45%

Cc1ccc2c(Cc3nc4ccccc4[nH]3)cc(=O)oc2c1
Activity (Rattus norvegicus [2]): 45%

Cc1cn2c3ccccc3nc2c2c(=O)oc3ccccc3c12
GI50 (MCF7): 26.6 µM | GI50 (SF-268): 18.4 µM | GI50 (NCI-H460): 29.3 µM | GI50 at 48 h [1]: 68.2 µM

Cc1c(/C=N/Nc2nc3ccccc3[nH]2)c(=O)oc2cc(O)ccc12
zone of inhibition at 1000 µg/mL (Bacillus subtilis): 13 mm | zone of inhibition at 1000 µg/mL (Pseudomonas aeruginosa [3]): 13 mm | zone of inhibition at 1000 µg/mL (Aspergillus terreus): 13 mm | zone of inhibition at 1000 µg/mL (Aspergillus flavus [4]): 13 mm | zone of inhibition at 1000 µg/mL (Staphylococcus aureus [5]): 13 mm | Activity (Rattus norvegicus [6]): 37% | zone of inhibition at 1000 µg/mL (Escherichia coli): 13 mm | zone of inhibition at 1000 µg/mL (Aspergillus niger): 13 mm

Cc1ccc2nc(SCc3cc4ccccc4oc3=O)[nH]c2c1
Activity (Shigella dysenteriae): 100% | Activity (Salmonella typhi): 100%

O=c1oc2ccc(Br)cc2cc1-c1nc2ccccc2[nH]1
Activity (Rattus norvegicus [7]): 45.45%

O=c1oc2ccccc2cc1-c1nc2ccccc2n1C(=S)Nc1ccccc1
GI50 (MCF7): 0.08 µM | GI50 (SF-268): 0.06 µM | GI50 (NCI-H460): 0.05 µM | GI50 at 48 h [1]: 28 µM

O=c1oc2ccc(Br)cc2cc1CSc1nc2cc(F)ccc2[nH]1
pEC50 (Hepatitis C virus): 5.47

CC(=O)OC[C@H]1O[C@@H](n2c(SCc3cc4cc(Br)ccc4oc3=O)nc3ccccc32)[C@H](OC(C)=O)[C@@H](OC(C)=O)[C@@H]1OC(C)=O
pEC50 (Hepatitis C virus): 5.39

O=c1oc2ccccc2cc1CSc1nc2ccccc2[nH]1
Activity (Shigella dysenteriae): 100% | Activity (Salmonella typhi): 100%

CCN(CC)c1ccc2cc(-c3nc4ccccc4n3C)c(=O)oc2c1
GI50 [8]: 0.1 µM | GI50 (SK-OV-3): 0.07 µM | GI50 (K562): 0.07 µM | GI50 (PANC-1): 0.1 µM

COc1cccc2cc(CSc3nc4cc(Cl)c(Cl)cc4[nH]3)c(=O)oc12
pEC50 (Hepatitis C virus): 5.44

Cc1ccc(S(=O)(=O)n2c(-c3cc(=O)oc4ccc(C)cc34)nc3ccccc32)cc1
GI50 (HeLa): 35 µg/mL (≈ 81.3 µM)

O=c1oc2ccccc2c(O)c1C(Sc1nc2ccccc2[nH]1)c1ccccc1 (configuration not stated)
diameter of the inhibition zone (DIZ) (Pseudomonas aeruginosa [9]): 23 mm | MIC (Pseudomonas aeruginosa [10]): 200 µg/mL (≈ 499 µM) | diameter of the inhibition zone (DIZ) (Aspergillus flavus [11]): 18 mm | MIC (Aspergillus flavus [12]): 200 µg/mL (≈ 499 µM)

O=c1oc2ccccc2c(O)c1S(=O)(=O)Nc1nc2ccccc2[nH]1
zone of inhibition at 500 µg/mL (Staphylococcus aureus [13]): 13 mm

CN[C@@H]1[C@H](O[C@H]2[C@H](O[C@H]3[C@H](O)[C@@H](O)[C@H](N=C(N)N)[C@@H](O)[C@@H]3N=C(N)N)O[C@@H](C)[C@]2(O)C=O)O[C@@H](CO)[C@H](O)[C@H]1O [STREPTOMYCIN]
MIC (Pseudomonas aeruginosa [10]): 2200 µg/mL (≈ 3780 µM)

CCN(CC)c1ccc2cc(-c3nc4cc(C)ccc4n3C)c(=O)oc2c1
GI50 [8]: 0.59 µM | GI50 (AGS): 0.78 µM | GI50 (SNU1): 0.12 µM | GI50 (K562): 0.67 µM

O=c1ccc2cc(OCCCCn3cnc4ccccc43)ccc2o1
IC50 (Sprivivirus cyprinus): 0.56 µg/mL (≈ 1.67 µM)

O=c1cc(Cn2c[n+](CCCCCn3c[n+](Cc4cc(=O)oc5cc(O)ccc45)c4ccccc43)c3ccccc32)c2ccc(O)cc2o1
pIC50 (Carbonic anhydrase 1): 4.00 | pIC50 (Carbonic anhydrase 2): 4.05

O=c1oc2ccc(Cl)cc2cc1-c1nc2cc(Cl)ccc2[nH]1
IC50 [14]: 0.67 µg/mL (≈ 2.02 µM) | IC50 (CCRF-CEM): 0.42 µg/mL (≈ 1.27 µM) | IC50 (MOLT-4): 0.44 µg/mL (≈ 1.33 µM)
